In patent publication US20120046354A1, “ANTI-OXIDANT LOZENGES FOR THE PREVENTION AND TREATMENT OF RADIATION INDUCED MUCOSITIS, PRECANCEROUS LESIONS, ORAL CANCER AND OTHER ORAL CAVITY MUCOSAL DISORDERS” (priority 2010, published 2012):

How the values were obtained:
[1] = tested on: severe mucositis; settings: 250 mg daily for 21 days then 75 mg daily; control group 38 patient-weeks, P=0.025; cited from earlier work
[2] = tested on: mucositis; settings: mouthwash; cited from earlier work
[3] = tested on: leukoplakia; parameters: clinical response rate / response rate among patients with biopsy-proved dysplasia: dose or concentration left out as unconfirmed; settings: cited from earlier work
[4] = tested on: oral leukoplakia; settings: topically applied; cited from earlier work
[5] = tested on: radiation proctopathy; assay: randomized double-blinded trial versus placebo in patients with radiation proctopathy; assay type: in vivo, human; settings: 10,000 IU by mouth for 90 days
Source text: (§1) The inventor has described a dramatic case of the patient with AIDS and anal carcinoma who developed a large radiation-induced anal ulceration with marked debility. The patient required high dose opioid therapy for control of anal pain. […] The inventor has also designed, conducted and published a randomized double-blinded trial comparing vitamin A in the form of retinyl palmitate (10,000 IU by mouth for 90 days) to placebo in patients with radiation proctopathy.

[6] = tested on: radiation-induced anal ulceration; assay: case of a patient with AIDS and anal carcinoma with radiation-induced anal ulceration, orally administered vitamin A; assay type: in vivo, human; settings: single patient
Source text: as §1

[7] = tested on: wound healing; settings: following burn injury and surgeries, laboratory animals; cited from earlier work
[8] = tested on: mucositis after chemotherapy; settings: 1 mL topical oil (400 mg) twice daily, 18 patients; cited from earlier work
[9] = three months of therapy, placebo 10 percent

Compound: CC1=C(/C=C/C(C)=C/C=C/C(C)=C/C=C/C=C(C)/C=C/C=C(C)/C=C/C2=C(C)CCCC2(C)C)C(C)(C)CCC1 [beta-carotene]
- severe mucositis [1]: 22 patient-weeks

Compound: [H]/N=C(\N/C(=N/[H])NCCCCCCNC(=N)NC(=N)Nc1ccc(Cl)cc1)Nc1ccc(Cl)cc1 [chlorhexidine]
- effectiveness for mucositis [2]: limited or possibly no effectiveness

Compound: CC1=C(/C=C/C(C)=C/C=C/C(C)=C\C(=O)O)C(C)(C)CCC1 [isotretinoin, 13-cis-retinoic acid]
- patients who required decreases in their dosage ([3]; higher dose, 2 mg/kg per day): 47%
- patients who developed conjunctivitis ([3]; lower dose, 1 mg/kg per day): 29%
- xeroderma ([3]; lower dose, 1 mg/kg per day): common
- clinical response rate [3, 9]: 67%
- response rate among patients with biopsy-proved dysplasia [3, 9]: 54%
- patients with relapse of disease ([3]; within three months of discontinuation of treatment): about half

Compound: O=C(c1ccccc1)c1ccc2n1CCC2C(=O)O (centres unmarked) [ketolorac]
- treatment of oral leukoplakia [4]: did not appear to effectively treat

Compound: CCCCCCCCCCCCCCCC(=O)OC/C=C(C)/C=C/C=C(C)/C=C/C1=C(C)CCCC1(C)C [retinyl palmitate]
- rectal symptoms of radiation proctopathy [5]: significantly reduced
- persistence of wound healing and symptomatic relief ([6]; after twelve week oral course): more than six
- wound healing and symptomatic relief ([6]; twelve week course, orally administered): complete wound healing and symptomatic relief

Compound: Vitamin A
- wound healing [7]: accelerate wound healing

Compound: vitamin E
- benefit on mucosal lesions compared to soybean oil [8]: benefit
